Test results published in patent US20140243261A1, “Method for treating diabetes and fatty liver disese by stimulating cellular metabolism” (priority 2013, published 2014).

System: resting carbohydrate metabolism
Assay: Resting metabolism by indirect calorimetric measurement in patients after pulsed IV insulin boluses with oral carbohydrate load
Assay type: in vivo, human
Text: A basic treatment sequence, in one preferred embodiment, is as follows. • Settle the patient and establish an intravenous (IV) flow. • Measure blood glucose. • From Table 1, arrange for the specified grams of glucose be made available to the patient. • Have the patient consume the glucose relatively quickly (time scale of minutes). Drinking an appropriate amount of GLUCOLA at a convenient rate, such as over about 30 to 90 seconds, is a useful range and route of administration. • Start IV boluses of hormone. Insulin is a useful and typical hormone for this application. • Administer hormone at the selected quantity, rate, and pattern. These details are discussed in more detail in the following sections. A typical sequence will administer the selected amount of insulin (milliunits, determined as per kilogram body weight of the patient). A useful bolus is fairly quick, such as less than five seconds. Bolus injections are repeated periodically. A useful scheme is to give boluses every six minutes, over the course of one hour. It can be useful to give boluses more rapidly. Every four minutes is a useful number. Spacing of approximately three to approximately ten minutes can be useful, and we have not tested the outer ranges of usefulness.
One useful way of assessing metabolic activity and health is to measure the volume of Carbon Dioxide Production and a […]. In example (a) below, CO2 production initially equals 0.124 L per 30 seconds of exhaled breath, with a Resting Energy Ratio of 0.66. The ratio is how one can test the amount of carbohydrate metabolized and thus producing ATP to verify the patient is metabolizing carbohydrates. Below […] is lipid metabolism, and above […] is carbohydrate metabolism.
It is useful for the metabolic assessment of the present invention to express exhaled CO2 in volume/time, such as L/30 sec. This assessment varies by patient, according to their size, lung capacity and other factors understood by one skilled in the art of pulmonary function and metabolism.
A useful tool for assessing this is from Vacuumed. The Vacuumed website (www) vacuumed (corn) includes a good discussion of the resting metabolism measurement. • VO2=oxygen uptake (ml/min) • VCO2=carbon dioxide output (ml/min) • Respiratory quotient (RQ)=VCO2/VO2
• a. The treatment form has 3 one-hour sessions with from 10 to 60 minutes rest between treatments. • b. TREATMENT GOAL: The goal of the treatment is to obtain increased ATP production from carbohydrates, by metabolizing approximately 100 g of glucose for each hour including the rest period. A desirable treatment blood glucose for oral carbohydrates is 150 mg/dl or 8.3 mmol/L of blood glucose. That equates to approximately 380 calories of carbohydrates for each 1-hour treatment session, or a total of 1,140 calories total for the 4.5 to 5.5 hours. • c. In one embodiment, patients' serum glucose level is monitored every thirty minutes to determine carbohydrate uptake and utilization. Resting metabolic measurement by an indirect calorimeter such as the Vacuumed Metabolic Measurement system provides the level of production of ATP from carbohydrates to validate the increase. • d. In order to maintain serum glucose levels sufficient to provide for a carbohydrate load for the production of ATP, the serum glucose is maintained at 150 mg/dl or 8.3 mmol/L or more by starting at 10 milliunits per kilo and increasing by 2 milliunits each 30 minutes until the desired level is achieved. This level is constantly adjusted each 30 minutes until the nominal load is obtained, and then continues for the remainder of the treatment, and is used for subsequent treatments.
a. In a preferred implementation, these patients: • i. Were checked for serum blood glucose (BG) about every 30 minutes, and for about 4.5 hours. • ii. Were given glucose averaging approximately 1,200 calories over that time. • iii. […]

Substance: insulin
- increase in ATP from carbohydrates (person with Alzheimer's Disease, 83 kg, three one-hour sessions, total 33 units insulin, 14 milliunits/kg): approximately 38%
- Carbon Dioxide Production after treatment (person with Alzheimer's Disease, 83 kg, three one-hour sessions, total 33 units insulin, 14 milliunits/kg, baseline 0.151): 0.208 L per 30 seconds
- Resting Energy Ratio after treatment (person with Alzheimer's Disease, 83 kg, three one-hour sessions, total 33 units insulin, 14 milliunits/kg, baseline 0.79): 0.99
- increase in ATP from carbohydrates (person, 50.5 kg, three one-hour sessions, total 42 units insulin, 28 milliunits/kg): approximately 280%
- Carbon Dioxide Production after treatment (person, 50.5 kg, three one-hour sessions, total 42 units insulin, 28 milliunits/kg, baseline 0.121): 0.342 L per 30 seconds
- Resting Energy Ratio after treatment (person, 50.5 kg, three one-hour sessions, total 42 units insulin, 28 milliunits/kg, baseline 0.67): 0.98
- increase in ATP from carbohydrates (person, 70 kg, three one-hour sessions, total 45 units insulin, 22 milliunits/kg): approximately 320%
- Carbon Dioxide Production after treatment (person, 70 kg, three one-hour sessions, total 45 units insulin, 22 milliunits/kg, baseline 0.091): 0.293 L per 30 seconds
- Resting Energy Ratio after treatment (person, 70 kg, three one-hour sessions, total 45 units insulin, 22 milliunits/kg, baseline 0.63): 0.98
- Carbon Dioxide Production after treatment (person, 85 kg, three one-hour sessions plus rest cycles, total 63 units insulin, 25 milliunits/kg, baseline 0.124): 0.255 L per 30 seconds
- increase in ATP from carbohydrates (person, 85 kg, three one-hour sessions, total 63 units insulin, 25 milliunits/kg): approximately 205%
- Resting Energy Ratio after treatment (person, 85 kg, three one-hour sessions, total 63 units insulin, 25 milliunits/kg, baseline 0.66): 0.96
